Test results reported in US11497785B2, “Oral anti-parasitic composition” (Mars, Incorporated, priority 2013, dated 2022).
≈ marks a conversion by molar mass, not a printed value.

Test system: Neospora caninum
Assay: Proliferation assay of Neospora caninum in HFF cells, tritiated uracil incorporation
Assay type: cell-based
Conditions: positive control, read-out: ICSO
Experimental: In order to solubilize the essential oils, the oils were diluted in dimethyl sulfoxide (DMSO) and then spread in the cell culture medium (DMEM) that was supplemented with 10% fetal calf serum (D10). DMSO was also used at a final concentration not exceeding 0.1%. Separate cultures of both parasites, Toxoplasma gondii and Neospora caninum, were prepared in vitro in human cell type HFF (Human Foreskin Fibroblasts), grown at 37° C. under 5% CO2 in a D10 medium. Both cultures were similar, the inoculum used for the various tests were the same, […] per well. It was observed that growing Neospora caninum is slower than that of Toxoplasma gondii.
Proliferation of the parasite in the cells is measured by counting the specific radioactivity of the incorporated tritiated uracil and compared to the control without essential oil (100% proliferation). The test is performed in 24-well plates and the whole test lasts about 24 hours. The positive control is achieved using pyrimethamine (ICSO: 0.1 μg/mL).
Values represent inhibition of proliferation.
The inhibition of proliferation was measured by incorporating tritiated uracil in both Toxoplasma gondii and Neospora caninum and the viability of HFF cells was assessed using MTT assay.

CCc1nc(N)nc(N)c1-c1ccc(Cl)cc1 [pyrimethamine]
IC50: 0.1 µg/mL (≈ 0.402 µM)
